Test results taken from DBAASP.
Values after ≈ are worked out from the molar mass of the structure shown. Values joined by “and” are separate entries in the source; they are usually repeats but may differ in a detail not shown here. Identical values can stand only once.

Legend:
Assay in all cases: ≥ marks a high value that may be exact or a test limit, other limits are often not marked, values filed in µg/mL are converted to µM
[1] = system: Escherichia coli
[2] = system: Staphylococcus aureus
[3] = system: Escherichia coli ATCC 25922
[4] = system: Staphylococcus aureus ATCC 25923
[5] = system: Pseudomonas aeruginosa

Row | SMILES | MIC [3] | also measured
1 | CC[C@H](C)[C@H](NC(=O)[C@H](Cc1ccc(O)cc1)NC(=O)[C@H](Cc1c[nH]c2ccccc12)NC(=O)[C@H](CC(C)C)NC(=O)[C@H](Cc1c[nH]c2ccccc12)NC(=O)[C@H](CCCN=C(N)N)NC(=O)[C@@H](NC(=O)[C@@H](NC(=O)[C@H](CCCN=C(N)N)NC(=O)[C@H](Cc1ccccc1)NC(=O)[C@H](Cc1c[nH]c2ccccc12)NC(=O)[C@H](CCCN=C(N)N)NC(=O)[C@H](Cc1c[nH]c2ccccc12)NC(=O)[C@H](CC(C)C)NC(=O)[C@H](CCCN=C(N)N)NC(=O)[C@H](C)NC(=O)[C@H](Cc1c[nH]c2ccccc12)NC(=O)[C@@H](N)CCCCN)[C@@H](C)CC)[C@@H](C)O)C(=O)N[C@@H](CCCCN)C(N)=O [KWARLWRWFRITRWLWYIK] |  | MIC [1]: > 36.2 µM; MIC [2]: > 36.2 µM
2 | CC[C@@H](C)[C@H](N=C(O)[C@H](CCCCN)N=C(O)[C@H](CS)N=C(O)[C@H](CCCCN)N=C(O)[C@H](CC(C)C)N=C(O)CN=C(O)C(CCC(=O)O)N=C(O)[C@H](CC(C)C)N=C(O)[C@H](CCCCN)N=C(O)CN=C(O)[C@H](C)N=C(O)[C@H](N=C(O)[C@H](CC(=O)O)N=C(O)[C@H](CCCCN)N=C(O)[C@H](C)N=C(O)[C@H](C)N=C(O)CN=C(O)C(CCCCN)N=C(O)C(CC(C)C)N=C(O)[C@H](N=C(O)C(CC(=O)O)N=C(O)[C@H](CC(C)C)N=C(O)[C@H](Cc1ccccc1)N=C(O)C(CC(C)C)N=C(O)CN)C(C)O)C(C)C)C(O)=N[C@H](C(O)=NCC(O)=N[C@H](CS)C(O)=N[C@H](CCCCN)C(O)=N[C@H](CC(C)C)C(=O)N1CCCC1C(=O)O)[C@@H](C)O (stereo partly specified) [GLFLDTLKGAAKDVAGKLEGLKCKITGCKLP] |  | MIC [2]: 60 µM (≈ 191 µg/mL)
3 | C[C@@H](O)[C@H](NC(=O)[C@H](CO)NC(=O)[C@H](CO)NC(=O)[C@@H](N)CCCCN)C(=O)N[C@@H](CCCN=C(N)N)C(=O)NCC(=O)N[C@@H](CCCN=C(N)N)C(=O)N[C@@H](CCCCN)C(=O)N[C@@H](CO)C(=O)N[C@@H](CO)C(=O)N[C@@H](CCCN=C(N)N)C(=O)N[C@@H](CCCN=C(N)N)C(=O)N[C@@H](CCCCN)C(=O)N[C@@H](CCCCN)C(=O)O [KSSTRGRKSSRRKK] | 120 µM (≈ 200 µg/mL) | MIC [4]: > 308 µM
4 | CC[C@H](C)[C@H](NC(=O)[C@H](C)NC(=O)CNC(=O)[C@H](C)NC(=O)[C@H](CCCCN)NC(=O)[C@H](CO)NC(=O)[C@H](C)NC(=O)[C@H](CCSC)NC(=O)CN)C(=O)N[C@@H](C)C(=O)NCC(=O)N[C@@H](CCCCN)C(=O)N[C@H](C(=O)N[C@@H](C)C(=O)N[C@@H](CCCCN)C(=O)N[C@H](C(=O)N[C@@H](C)C(=O)N[C@@H](Cc1c[nH]c2ccccc12)C(=O)N[C@@H](CCCCN)C(=O)N[C@@H](C)C(=O)N[C@@H](CC(C)C)C(=O)NCC(=O)NCC(=O)N[C@@H](CO)C(N)=O)C(C)C)[C@@H](C)CC [GMASKAGAIAGKIAKVAWKALGGS] | 12.5 µM (≈ 28 µg/mL) | 
5 | NC(=O)[C@H](CCCN=C(N)N)NC(=O)[C@H](CCCN=C(N)N)NC(=O)[C@H](Cc1c[nH]c2ccccc12)NC(=O)[C@H](Cc1c[nH]c2ccccc12)NC(=O)[C@H](CCCN=C(N)N)NC(=O)[C@H](CCCN=C(N)N)NC(=O)[C@H](Cc1c[nH]c2ccccc12)NC(=O)[C@H](Cc1c[nH]c2ccccc12)NC(=O)[C@H](Cc1c[nH]c2ccccc12)NC(=O)[C@H](CCCN=C(N)N)NC(=O)[C@H](CCCN=C(N)N)NC(=O)[C@@H](N)CCCN=C(N)N [RRRWWWRRWWRR] |  | MIC [5]: 1.96 µM (≈ 4 µg/mL)
6 | CC[C@H](C)[C@H](NC(=O)[C@H](C)NC(=O)CNC(=O)[C@H](C)NC(=O)[C@H](CCCCN)NC(=O)[C@H](CO)NC(=O)[C@H](C)NC(=O)[C@H](CCSC)NC(=O)CN)C(=O)N[C@@H](C)C(=O)NCC(=O)N[C@@H](CCCCN)C(=O)N[C@H](C(=O)N[C@@H](C)C(=O)N[C@@H](CCCCN)C(=O)N[C@H](C(=O)N[C@@H](C)C(=O)N[C@@H](CC(C)C)C(=O)N[C@@H](CCCCN)C(=O)N[C@@H](C)C(=O)N[C@@H](CC(C)C)C(=O)NCC(=O)NCC(=O)N[C@@H](CS)C(N)=O)C(C)C)[C@@H](C)CC [GMASKAGAIAGKIAKVALKALGGC] | 6.3 µM (≈ 13.8 µg/mL) | 
7 | CC[C@H](C)[C@H](NC(=O)CN)C(=O)N[C@@H](Cc1ccccc1)C(=O)N[C@@H](CC(C)C)C(=O)N[C@@H](CC(=O)O)C(=O)N[C@@H](CCCCN)C(=O)N[C@@H](CC(C)C)C(=O)N[C@@H](CCCCN)C(=O)N[C@@H](CC(N)=O)C(=O)N[C@@H](Cc1ccccc1)C(=O)N[C@@H](C)C(=O)N[C@@H](CCCCN)C(=O)NCC(=O)N[C@H](C(=O)N[C@@H](C)C(=O)N[C@@H](CCC(N)=O)C(=O)N[C@@H](CO)C(=O)N[C@@H](CC(C)C)C(=O)N[C@@H](CC(C)C)C(=O)N[C@@H](CC(N)=O)C(=O)N[C@@H](CCCCN)C(=O)N[C@@H](C)C(=O)N[C@@H](CO)C(=O)N[C@H]1CSSC[C@@H](C(=O)O)NC(=O)[C@H](CCC(N)=O)NC(=O)CNC(=O)[C@H](CO)NC(=O)[C@H](CC(C)C)NC(=O)[C@H](CCCCN)NC1=O)C(C)C [GIFLDKLKNFAKGVAQSLLNKASCKLSGQC] | 2 µM (≈ 6.36 µg/mL) | 
8 | CC[C@H](C)[C@H](NC(=O)[C@H](C)NC(=O)[C@H](CO)NC(=O)[C@@H](NC(=O)[C@@H](N)Cc1ccccc1)[C@@H](C)CC)C(=O)N[C@@H](C)C(=O)N[C@@H](CO)C(=O)N[C@@H](Cc1ccccc1)C(=O)N[C@@H](CC(C)C)C(=O)NCC(=O)N[C@@H](CCCCN)C(=O)N[C@@H](Cc1ccccc1)C(=O)N[C@@H](CC(C)C)C(=O)O [FISAIASFLGKFL] |  | MIC [2]: 130 µM (≈ 184 µg/mL)
9 | CC(C)[C@@H]1NC(=O)[C@@H]2CSSC[C@H](NC(=O)[C@H](Cc3ccc(O)cc3)NC(=O)[C@@H](N)CSSC[C@@H](C(=O)O)NC1=O)C(=O)N[C@@H](CCCN=C(N)N)C(=O)N[C@@H](CCCN=C(N)N)C(=O)N[C@@H](CCCN=C(N)N)C(=O)N[C@@H](Cc1ccccc1)C(=O)N2 [CYCRRRFCVC] |  | MIC [1]: 10.8 µM (≈ 14.1 µg/mL)
10 | CSCC[C@H](NC(=O)[C@@H](NC(=O)[C@H](CCCN=C(N)N)NC(=O)[C@H](Cc1ccccc1)NC(=O)[C@H](C)NC(=O)[C@H](C)NC(=O)[C@H](CCCCN)NC(=O)[C@H](CC(C)C)NC(=O)[C@H](Cc1c[nH]c2ccccc12)NC(=O)[C@H](C)NC(=O)[C@@H]1CCCN1C(=O)[C@@H](N)CCCN=C(N)N)C(C)C)C(=O)N[C@@H](CCCN=C(N)N)C(=O)N[C@@H](C)C(=O)N[C@@H](CS)C(=O)N[C@H](C(N)=O)C(C)C [RPAWLKAAFRVMRACV] |  | MIC [5]: 4.27 µM (≈ 8 µg/mL)

Now from value to molecule, other results behind:

Row | MIC [3] | SMILES | also measured
11 | 16 µM (≈ 16 µg/mL) | CC(C)C[C@H](NC(=O)[C@H](CCC(N)=O)NC(=O)[C@H](CCCCN)NC(=O)[C@H](CCCCN)NC(=O)[C@@H]1CCCN1C(=O)[C@H](C)N)C(=O)N[C@@H](CCCCN)C(=O)N[C@@H](Cc1c[nH]c2ccccc12)C(=O)O [APKKQLKW] | 
12 | 64.1 µM (≈ 64 µg/mL) | CC(C)[C@H](NC(=O)[C@H](CC(N)=O)NC(=O)[C@H](CCCCN)NC(=O)[C@H](CCCN=C(N)N)NC(=O)[C@@H]1CCCN1C(=O)[C@H](C)N)C(=O)N[C@@H](CCCCN)C(=O)N[C@@H](Cc1c[nH]c2ccccc12)C(=O)O [APRKNVKW] | 
13 | 200 µM (≈ 234 µg/mL) | CC[C@H](C)[C@H](NC(=O)[C@H](CCCN=C(N)N)NC(=O)[C@H](CCCCN)NC(=O)[C@H](CC(C)C)NC(=O)[C@H](CCSC)NC(=O)CN)C(=O)N[C@@H](CCCCN)C(=O)N[C@H](C(=O)N[C@@H](CC(C)C)C(=O)N[C@@H](CC(C)C)C(N)=O)[C@@H](C)O [GMLKRIKTLL] | 
14 | > 38.7 µM | CC[C@H](C)[C@H](NC(=O)[C@H](CCCN=C(N)N)NC(=O)[C@H](CCCCN)NC(=O)[C@H](CC(C)C)NC(=O)[C@H](C)NC(=O)CN)C(=O)N[C@@H](CCCCN)C(=O)N[C@H](C(=O)N[C@@H](CC(C)C)C(=O)N[C@@H](CC(C)C)C(N)=O)[C@@H](C)O [GALKRIKTLL] | MIC [4]: > 38.7 µM
15 | 8 µM (≈ 16.5 µg/mL) | CC(C)C[C@H](NC(=O)[C@H](Cc1ccccc1)NC(=O)[C@@H]1CCCN1C(=O)[C@H](Cc1c[nH]c2ccccc12)NC(=O)[C@H](Cc1c[nH]c2ccccc12)NC(=O)[C@H](Cc1c[nH]c2ccccc12)NC(=O)[C@@H]1CCCN1C(=O)[C@H](Cc1ccccc1)NC(=O)[C@H](CCCN=C(N)N)NC(=O)[C@H](CCCN=C(N)N)NC(=O)[C@@H](NC(=O)[C@@H](NC(=O)CN)[C@@H](C)O)C(C)C)C(=O)N[C@@H](CCCN=C(N)N)C(=O)N[C@@H](CCCN=C(N)N)C(=O)O [GTVRRFPWWWPFLRR] | 
16 | 30.6 µM (≈ 34 µg/mL) | CC[C@H](C)[C@H](NC(=O)[C@H](CC(N)=O)NC(=O)[C@H](CCCCN)NC(=O)[C@H](CC(C)C)NC(=O)[C@H](CC(C)C)NC(=O)CN)C(=O)N[C@@H](CCCCN)C(=O)N[C@H](C(=O)N[C@@H](CC(C)C)C(=O)N[C@@H](CC(C)C)C(N)=O)[C@@H](C)O [GLLKNIKTLL] | MIC [4]: 62 µM (≈ 68.9 µg/mL)
17 | 1.79 µM (≈ 2 µg/mL) | CC(C)C[C@H](NC(=O)[C@H](CCC(N)=O)NC(=O)[C@H](CCCCN)NC(=O)[C@H](CCCN=C(N)N)NC(=O)[C@H](Cc1ccccc1)NC(=O)[C@@H](N)CC(C)C)C(=O)N[C@@H](CCCCN)C(=O)N[C@@H](Cc1c[nH]c2ccccc12)C(=O)O [LFRKQLKW] | 
18 | 6.73 µM and 13.5 µM | CC(C)C[C@H](NC(=O)[C@H](CC(C)C)NC(=O)[C@H](CCCCN)NC(=O)[C@H](CCCCN)NC(=O)[C@H](CC(C)C)NC(=O)[C@H](Cc1c[nH]c2ccccc12)NC(=O)[C@H](CCCCN)NC(=O)[C@H](CC(C)C)NC(=O)[C@@H](N)Cc1ccccc1)C(N)=O [FLKWLKKLL] | 
19 | 22.5 µM and 63.6 µM | CC[C@H](C)[C@H](NC(=O)[C@H](CCCCN)NC(=O)[C@H](CC(C)C)NC(=O)[C@@H](NC(=O)[C@H](CCCCN)NC(=O)[C@H](C)N)C(C)C)C(=O)N[C@@H](CO)C(=O)N[C@@H](CCCN=C(N)N)C(=O)N[C@@H](CCCN=C(N)N)C(=O)N[C@@H](C)C(=O)N[C@@H](Cc1ccccc1)C(=O)N[C@@H](CCCN=C(N)N)C(=O)N[C@@H](CCCCN)C(N)=O [AKVLKISRRAFRK] | 
20 | 14.6 µM (≈ 16 µg/mL) | CC[C@H](C)[C@H](NC(=O)[C@H](CCCN=C(N)N)NC(=O)[C@H](C)NC(=O)[C@H](CC(C)C)NC(=O)[C@H](CC(C)C)NC(=O)CN)C(=O)N[C@@H](CCCCN)C(=O)N[C@H](C(=O)N[C@@H](CC(C)C)C(=O)N[C@@H](CC(C)C)C(N)=O)[C@@H](C)O [GLLARIKTLL] | MIC [4]: 25.5 µM (≈ 28 µg/mL)
21 | 130 µM (≈ 128 µg/mL) | CC(C)[C@H](NC(=O)[C@H](CC(N)=O)NC(=O)[C@H](CCCCN)NC(=O)[C@H](CCCN=C(N)N)NC(=O)[C@@H]1CCCN1C(=O)[C@H](C)N)C(=O)N[C@@H](CCCN=C(N)N)C(=O)N[C@@H](Cc1ccccc1)C(=O)O [APRKNVRF] | 
